According to patent publication US20220265644A1, “FIXED DOSE COMBINATION DRUG FOR THE TREATMENT OF MALARIA” (priority 2020, published 2022):

Experiments:
[1] = tested on: P. vivax; assay: Synriam Phase III, N=317, randomized, open label, multi-centric, uncomplicated P. vivax malaria; assay type: in vivo; conditions: Adults, Children >12 - 65 Y
[2] = tested on: P. vivax; assay: Synriam Phase III, N=164, randomized, open label, multi-centric, uncomplicated P. vivax malaria; assay type: in vivo; conditions: Children 6 months - 12 Y
[3] = tested on: early ring stages from artemisinin-resistant and artemisinin-sensitive parasites (P. falciparum); assay: Ring Stage Assay (RSA) as per WHO's recommendation; assay type: cell-based; conditions: at 700 nM

Row | Compound | Proportion of aparasitemic & afebrile patients at 72 h (%) ITT ([1]; 72 h, ITT) | Proportion of aparasitemic & afebrile patients at 72 h (%) PP ([1]; 72 h, PP) | FCT Median (h) ([1]; India) | PCT Median ([1]; India) | Proportion of aparasitemic & afebrile patients at 72 h (%) ITT ([2]; 72 h, ITT) | Proportion of aparasitemic & afebrile patients at 72 h (%) PP ([2]; 72 h, PP) | FCT Median ([2]; India) | PCT Median ([2]; India) | cross-resistance to DHA [3] | activity against early ring stages ([3]; artemisinin-resistant and artemisinin-sensitive parasites)
1 | CCN(CC)CCCC(C)Nc1ccnc2cc(Cl)ccc12 (stereo not shown) [Chloroquine] | 98.7% | 99.3% | 24 vs. 24 h | 26 h | 100% | PP: 100 vs. 100% | 18 h | 24 h | – | –
2 | Arterolane | – | – | – | – | – | – | – | – | no cross-resistance to DHA | extremely active
